Experimental data taken from US7960420B2, “Diazonamide analogs with improved solubility” (Joyant Pharmaceuticals, Inc, priority 2007, dated 2011).
Read-outs that look alike come from different tables or passages of the source.

Legend:
[1] = aqueous solubility in de-ionized water; format: physicochemical; settings: for solubility: thermodynamic from solid
Protocol: Unless otherwise indicated, the solubility measurements described herein are determined by dissolving the test compound in de-ionized (DI) water at 25° C. […] In particular, the compounds provided by Examples 22, 23, 28, 30, 31, 37 and 38 are water soluble.

[2] = system: HCC461 human NSCLC xenograft; test: HCC461 human NSCLC xenograft tumor model in mice; format: in vivo; settings: FIG. 1; 20 mg/kg per dose; injections at days 7, 9, 11, 14, 16 and 18 post tumor cell injection
Protocol: Compound 22 (prepared according to Example 22) and Compound 28 (prepared according to Example 28) were tested in a HCC461 human NSCLC xenograft tumor model in mice.
Preparation of Tumor Cells • 1. Hcc461 cells were cultured in complete RPMI medium and excluded any contamination • 2. When cells are 70-80% confluent, medium was removed and cells were washed with serum free media, trypsinized, harvested and washed with serum free media for three times by centrifuge. After final washing, cells were counted and mixed with matrigel at 1:1 ration in volume. Cells were suspended in a volume that 200 PI contains required number of cells per injection.
Preparation of Mice • 1. Mice should be 4-6 weeks old. • 2. Allow 3-5 days acclimatization period after mice have arrived.
Preparation of the Injection • 1. Clean and sterilize the inoculation area of the mice with iodine solutions and ethanol. • 2. Take cells with 1-cc syringe. • 3. Inject cells (1×10^7) with 27 gauge needles subcutaneously (s.c.) into the lower flank of the mice. • 4. Therapy was started after 1 week when the tumors have reached an average volume of ˜250 mm^3. • 5. Tumor diameters are measured with digital calipers, and the tumor volume in mm^3 is calculated by the formula: Volume=(width)^2×length/2
Treatment • 1. Compound 22 and Compound 28 were dissolved in water at concentration of 5 mg/ml and diluted to working solution with D5W before injection. Compound 16 was administered at 20 mg/kg in a mixture of 5% ethanol-5% cremaphor-90% saline. • 2. Each tumor bearing mouse was injected with Compound 22 at 20 mg/kg, Compound 28 at 20 mg/kg or at 10 mg/kg, or Compound 16 at 20 mg/kg via tail vein and continually injected with the same method for a total of 6 times, on days 7, 9, 11, 14, 16, and 18 post tumor-cell injection.

[3] = stability of aqueous solution at room temperature; format: physicochemical
Protocol: To the combined filtration above was added a stock solution of NaOH in water (14.4 mg/mL, 1 mL, 0.360 mmol). The resulting solution was concentrated to remove most of MeOH at room temperature. Then the residue was diluted with DI water (100 mL). This solution was filtered through a syringe filter (0.45 um) to remove tiny particles. The filtrate was lyophilized to afford the desired compound monosodium salt, 31 (285 mg, 97% yield for two steps).

[4] = system: HCT-116 cells; settings: a human colorectal carcinoma line; cited from earlier work
[5] = system: microtubule assembly; settings: Cruz-Monserrate et al., Mol. Pharmacol., 2003; cited from earlier work
[6] = de-ionized (DI) water at 25° C., read-out: water solubility

CCC(O)(CC)C(=O)N[C@H]1Cc2ccc3c(c2)C24C5=C(N=C(O5)[C@H](C(C)C)NC1=O)c1ncc(o1)-c1c[nH]c5c(OP(=O)([O-])[O-])ccc(c15)-c1cccc2c1NC4O3.[Na+].[Na+] (stereo partly drawn) [Compound 38]
solubility [1, 6]: > 1000 µg/mL

CC(C)[C@H](O)C(=O)N[C@H]1Cc2ccc3c(c2)[C@]24C5=C(N=C(O5)[C@H](C(C)C)NC1=O)c1ncc(o1)-c1cn(P(=O)(O)O)c5cccc(c15)-c1cccc2c1NC4O3 (stereo partly drawn) [Compound 28]
solubility [1, 6]: > 1000 µg/mL

CCC(O)(CC)C(=O)N[C@H]1Cc2ccc3c(c2)C24C5=C(N=C(O5)[C@H](C(C)C)NC1=O)c1ncc(o1)-c1c[nH]c5c(OP(=O)(O)O)ccc(c15)-c1cccc2c1NC4O3 (stereo partly drawn) [Compound 37]
solubility [1, 6]: > 1000 µg/mL

CC(C)[C@@H]1NC(=O)[C@@H](NC(=O)[C@@H](OP(=O)(O)O)C(C)C)Cc2ccc3c(c2)[C@]24C5=C(N=C1O5)c1ncc(o1)-c1c[nH]c5cccc(c15)-c1cccc2c1NC4O3 (stereo partly drawn) [Compound 22]
solubility [1, 6]: > 1000 µg/mL
tumor free animals [2]: no tumor free animals
weight loss in the treated group [2]: No weight loss

CCC(O)(CC)C(=O)N[C@H]1Cc2ccc3c(c2)[C@]24C5=C(N=C(O5)[C@H](C(C)C)NC1=O)c1ncc(o1)-c1cn(P(=O)([O-])O)c5cccc(c15)-c1cccc2c1NC4O3.[Na+] (stereo partly drawn) [Compound 31]
solubility [1, 6]: > 1000 µg/mL
solubility ([1]; water, 25 °C, water, read-out: solubility in water): 20000 µg/mL
time for which the aqueous solution is stable [3]: more than 48 hours

CCC(O)(CC)C(=O)N[C@H]1Cc2ccc3c(c2)[C@]24C5=C(N=C(O5)[C@H](C(C)C)NC1=O)c1ncc(o1)-c1cn(P(=O)(O)O)c5cccc(c15)-c1cccc2c1NC4O3 (stereo partly drawn) [Compound 30]
solubility [1, 6]: > 1000 µg/mL

CC(C)[C@H](O)C(=O)NC1Cc2ccc3c(c2)[C@]24C5=C(N=C(O5)[C@H](C(C)C)NC1=O)c1nc(Cl)c(o1)-c1c(Cl)[nH]c5cccc(c15)-c1cccc2c1NC4O3 (stereo partly drawn) [Diazonamide A]
GI50 values (50% growth inhibitory concentration) [4]: less than 15 ng/ml
inhibition of microtubule assembly [5]: inhibit microtubule assembly

CC(C)C1NC(=O)[C@@H](NC(=O)[C@@H](O)C(C)C)Cc2ccc3c(c2)C24C5=C(N=C1O5)c1ncc(o1)-c1c[nH]c5cccc(c15)-c1cccc2c1N[C@H]4O3 (stereo partly drawn) [Compound 16]
tumor free animals [2]: no tumor free animals

CC(C)[C@@H]1NC(=O)[C@@H](NC(=O)[C@@H](OP(=O)([O-])O)C(C)C)Cc2ccc3c(c2)[C@]24C5=C(N=C1O5)c1ncc(o1)-c1c[nH]c5cccc(c15)-c1cccc2c1NC4O3.[Na+] (stereo partly drawn) [Compound 23]
amount shown to dissolve in 1 mL of de-ionized water ([1]; 1 mL of de-ionized water): 5 mg
solubility [1, 6]: > 1000 µg/mL
